Source: US12161116B1, “Ethyl-2-{[(2,4-dichlorobenzoyl carbamothioyl]amino}-4,5,6,7-tetrahydro-1-benzothiophene-3-carboxylate as an eco-friendly insecticidal agent against Spodoptera littoralis (boisd.)” (priority 2023, dated 2024)
Converted amounts (≈) assume the structure as drawn. Like-named read-outs stand apart in the source and are kept apart here.

Test system: Spodoptera littoralis
Test: Insecticidal bioassay screening (castor leaf dip) on second and fourth instar larvae
Format: in vivo
Settings: for Toxicity index %: 72 hrs, Diflubenzuron's LC50 / the compound's LC50 × 100; for LC90 (mg/L) at 95%: after 72 hrs of treatment, treated castor leaves; for LC50: Spodoptera littoralis, in Gossypium hirsutum, foliar, 72 h
Protocol: Five concentrations (200, 100, 50, 25, 12.5 ppm) were designed for this synthetic compound and the reference Diflubenzuron compound as the dynamic ingredients based on mg/L via diluting the commercial formulation.
In this experiment, castor leaves are immersed in each of the previously prepared concentrations of the components for 10 seconds and then left to dry for 60 minutes. Larvae of the second and fourth instars of each checked strain are prepared with treated leaves in gauze-covered glass containers for 72 hrs. An untreated control is made in which leaves are dipped in triton x-100 and distilled water only. Then the preserved leaves were removed & fresh, untreated leaves were provided for 72 hours. Three replicates (10 larvae each) were checked for each concentration. Daily inspection was carried out for all treatments and mortality percentages were recorded 3 days (72 hours) after treatment. The average mortality percentage was corrected employing Abbott's formula. The corrected mortality rate for each of the previously synthesized compounds is statistically calculated according to Finney (1970). Through this rate, the corresponding concentration test lines (LDP lines) are assessed.

[1] = read-out: LC50 (mg/L) at 95%, 2nd instar larvae, after 72 hrs of treatment, treated castor leaves
[2] = read-out: LC50 (mg/L) at 95%, 4th instar larvae, after 72 hrs of treatment, treated castor leaves

Row | SMILES | Toxicity index % (2nd instar larvae) [%] | LC90 (mg/L) at 95% (2nd instar larvae) [mg/L] | Toxicity index % (4th instar larvae) [%] | LC90 (mg/L) at 95% (4th instar larvae) [mg/L] | LC50 [1] [mg/L] | LC50 [2] [mg/L]
1 | O=C(NC(=O)c1c(F)cccc1F)Nc1ccc(Cl)cc1 [Diflubenzuron] | 100 | 520.0 (≈ 1670 µM) | 100 | 1540.5 (≈ 4960 µM) | 45.2 (≈ 145 µM) | 144 (≈ 464 µM)
2 | CCOC(=O)c1c(NC(=S)NC(=O)c2ccc(Cl)cc2Cl)sc2c1CCCC2 [Ethyl-2-{[(2,4-dichlorobenzoyl)carbamothioyl]amino}-4,5,6,7-tetrahydro-1-benzothiophene-3-carboxylate] |  |  |  |  | ~270 (≈ 591 µM) | ~631 (≈ 1380 µM)
